According to patent publication US20020099086A1, “Use of extracts from aristolochia in the treatment of AIDS” (PROTEOME SCIENCES PLC, priority 1998, published 2002):

Assays:
brine shrimp = assay: Brine shrimp bioassay (cytotoxicity); format: in vivo; conditions: for LC50: brine shrimp, 24 hours
Protocol: The cytotoxicity of compounds isolated from Aristolochia taliscana was assayed using the well known brine shrimp bioassay. The cytotoxicities of compounds of the invention, expressed as percentage “death rates” after 24 hours, at varying concentrations, are shown in Table 8 below.

[1] = tested on: Salmonella typhimurium strain TA 100; assay: Ames bio-assay, antimutagenic activity against 2-nitrofluorene (2-NF); format: cell-based; conditions: for Residual mutagenic activity (%) observed for 2-NF: 1 μg 2-NF per plate
Protocol: (§1) The four major constituents of the benzene extract from Aristolochia taliscana roots—eupomatenoid-7 (7), eupomatenoid-1 (8), eupomatenoid-8 (17), Licarin-A (16)—were tested for their mutagenic and antimutagenic properties using the Ames bio-assay (Maron, D. M. and Ames, B. N., Mutation reasearch, 1983, 113, 173). The test compounds have the following structural formula: [drawing 11]
(§2) Salmonella typhimurium strain TA 100 was used as the test organism and 2-amino-anthracene (2-AA) and 2-nitrofluorene (2-NF) as standard mutagens, of which 1 μg were added to each test plate. In the experiments with 2-AA, “S9 Mix” (derived from phenobarbital treated rat liver cells (De Flora, S., Camoirana, A., D'Agostini, F. and Balansky, R., Mutation Research, 1992, 267, 183) was also added.

[2] = tested on: Salmonella typhimurium strain TA 100; assay: Ames bio-assay, antimutagenic activity against 2-amino-anthracene (2-AA) with S9 Mix; format: cell-based; conditions: for Residual mutagenic activity (%) observed for 2-AA: 1 μg 2-AA per plate, S9 Mix
Protocol: as §1, §2

Saprolegnia asterophora = assay: Antifungal plate diffusion method; format: cell-based; conditions: 150 microgramme aliquot spotted onto plate
Protocol: (§3) The antifungal activities of compounds of the invention was determined using a plate diffusion method. Plates containing medium and a fungal species were made up and 150 microgramme aliquots of a test compound of the invention were spotted onto the plate. The diameter of inhibition of fungal growth around the test compound was then determined.

Rhizoctonia solani = assay: Antifungal plate diffusion method; format: cell-based; conditions: 150 microgramme aliquot spotted onto plate
Protocol: as §3

Botryis cinerea = assay: Antifungal plate diffusion method; format: cell-based; conditions: 150 microgramme aliquot spotted onto plate
Protocol: as §3

GABA receptors = assay: Interaction with neurotransmitter receptors; format: binding
Parkinsonism = conditions: disclosed in U.S. Pat. No. 4782077; cited from earlier work
[3] = tested on: remaining receptors of twenty seven common receptor types; assay: Interaction with neurotransmitter receptors; format: binding; conditions: twenty seven common receptor types tested
dopamine receptors = assay: Interaction with neurotransmitter receptors; format: binding
serotonin receptors = assay: Interaction with neurotransmitter receptors; format: binding
opiate mu receptor = opiate mu receptor (Homo sapiens, UniProt P35372); assay: Interaction with neurotransmitter receptors; format: binding
Chain of opiate mu receptor (P35372 whole entry): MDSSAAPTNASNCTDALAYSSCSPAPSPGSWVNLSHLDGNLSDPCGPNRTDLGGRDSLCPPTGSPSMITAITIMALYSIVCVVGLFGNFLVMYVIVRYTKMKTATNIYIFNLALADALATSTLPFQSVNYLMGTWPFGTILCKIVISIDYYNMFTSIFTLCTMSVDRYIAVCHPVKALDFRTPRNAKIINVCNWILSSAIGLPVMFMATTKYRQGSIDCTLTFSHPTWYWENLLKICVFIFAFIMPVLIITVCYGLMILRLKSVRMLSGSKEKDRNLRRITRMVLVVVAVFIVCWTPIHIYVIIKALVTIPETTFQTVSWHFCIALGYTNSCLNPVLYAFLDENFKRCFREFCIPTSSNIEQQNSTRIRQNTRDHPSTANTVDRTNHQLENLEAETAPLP

C/C=C/c1cc(OC)c2oc(-c3ccc(O)c(OC)c3)c(CO)c2c1
melting point: 175 to 179 °C

COc1cc(C2(C)COc3c(OC)cc(C=O)cc32)ccc1O (stereo not shown)
melting point: 162 to 165 °C

COc1cc(-c2oc3c(OC)cc(/C=C/CO)cc3c2C)ccc1O
melting point: 180 to 183 °C

C=CC(O)c1cc(OC)c2oc(-c3ccc(O)c(OC)c3)c(C)c2c1 (racemic)
melting point: 164 to 167 °C

CC=Cc1cc(OC)c2c(c1)C(C)C(c1ccc3c(c1)OCO3)O2 (single isomer, unassigned; (-)) [Eupomatenoid-8 (17)]
“Death Rate” After 24 Hours (%) (brine shrimp; 10 ppm): 9%
“Death Rate” After 24 Hours (%) (brine shrimp; 100 ppm): 27%
“Death Rate” After 24 Hours (%) (brine shrimp; 500 ppm): 42%
LC50 (brine shrimp): >500 ppm
antimutagenic effect against 2-nitrofluorene (in words) [1]: did not show any antimutagenic effect
Residual mutagenic activity (%) observed for 2-NF ([1]; 50 μg compound added): 100%
Residual mutagenic activity (%) observed for 2-NF ([1]; 100 μg compound added): 95%
antimutagenic effect against 2-aminoanthracene (in words) [2]: did not show any antimutagenic effect
Residual mutagenic activity (%) observed for 2-AA ([2]; 50 μg compound added): 90%
Residual mutagenic activity (%) observed for 2-AA ([2]; 100 μg compound added): 73%
diameter of inhibition of fungal growth, Saprolegnia asterophora (Saprolegnia asterophora): −
diameter of inhibition of fungal growth, Rhizoctonia solani (Rhizoctonia solani): −
diameter of inhibition of fungal growth, Botryis cinerea (Botryis cinerea): −

COc1ccc2cc3c4c(cc(OC)c(OC)c4c2c1)C(=O)N3 [Aristolactam B (3), Aristolactam B III]
“Death Rate” After 24 Hours (%) (brine shrimp; 10 ppm): 5%
“Death Rate” After 24 Hours (%) (brine shrimp; 100 ppm): 9%
“Death Rate” After 24 Hours (%) (brine shrimp; 500 ppm): 29%
LC50 (brine shrimp): >500 ppm
diameter of inhibition of fungal growth, Saprolegnia asterophora (Saprolegnia asterophora): −
diameter of inhibition of fungal growth, Rhizoctonia solani (Rhizoctonia solani): + (+ = 5 mm diameter inhibition)
diameter of inhibition of fungal growth, Botryis cinerea (Botryis cinerea): −

COc1cc2c(cc1C)C(=O)[C@H](O)C[C@@H]2C [Compound 34, (2R,4S)-2-Hydroxy-6-methoxy-4,7-dimethyl-1-tetralone]
“Death Rate” After 24 Hours (%) (brine shrimp; 10 ppm): 52%
“Death Rate” After 24 Hours (%) (brine shrimp; 100 ppm): 86%
“Death Rate” After 24 Hours (%) (brine shrimp; 500 ppm): 100%
LC50 (brine shrimp): <10 ppm
diameter of inhibition of fungal growth, Saprolegnia asterophora (Saprolegnia asterophora): ++ (++ = 5-10 mm diameter inhibition)
diameter of inhibition of fungal growth, Rhizoctonia solani (Rhizoctonia solani): ++ (++ = 5-10 mm diameter inhibition)
diameter of inhibition of fungal growth, Botryis cinerea (Botryis cinerea): ++ (++ = 5-10 mm diameter inhibition)

COc1cc(/C=C/CO)ccc1O [Coniferyl alcohol (29), Coniferyl alcohol]
“Death Rate” After 24 Hours (%) (brine shrimp; 10 ppm): 0%
“Death Rate” After 24 Hours (%) (brine shrimp; 100 ppm): 0%
“Death Rate” After 24 Hours (%) (brine shrimp; 500 ppm): 15%
LC50 (brine shrimp): >500 ppm
diameter of inhibition of fungal growth, Saprolegnia asterophora (Saprolegnia asterophora): −
diameter of inhibition of fungal growth, Rhizoctonia solani (Rhizoctonia solani): −
diameter of inhibition of fungal growth, Botryis cinerea (Botryis cinerea): −

C=C1/C=C/[C@@H](C(C)C)CC/C(C)=C/CC1 [E-Germacrene D (38), ent-Germacrene-D]
“Death Rate” After 24 Hours (%) (brine shrimp; 10 ppm): 0%
“Death Rate” After 24 Hours (%) (brine shrimp; 100 ppm): 39%
“Death Rate” After 24 Hours (%) (brine shrimp; 500 ppm): 100%
LC50 (brine shrimp): ca. 126 ppm
diameter of inhibition of fungal growth, Saprolegnia asterophora (Saprolegnia asterophora): −
diameter of inhibition of fungal growth, Rhizoctonia solani (Rhizoctonia solani): + (+ = 5 mm diameter inhibition)
diameter of inhibition of fungal growth, Botryis cinerea (Botryis cinerea): + (+ = 5 mm diameter inhibition)

CC=Cc1cc(OC)c2oc(-c3ccc4c(c3)OCO4)c(C)c2c1 [Eupomatenoid-1 (8), Eupomatenoid-1]
“Death Rate” After 24 Hours (%) (brine shrimp; 10 ppm): 12%
“Death Rate” After 24 Hours (%) (brine shrimp; 100 ppm): 16%
“Death Rate” After 24 Hours (%) (brine shrimp; 500 ppm): 20%
LC50 (brine shrimp): >500 ppm
antimutagenic effect against 2-nitrofluorene (in words) [1]: not against 2-NF
Residual mutagenic activity (%) observed for 2-NF ([1]; 50 μg compound added): 99%
Residual mutagenic activity (%) observed for 2-NF ([1]; 100 μg compound added): 93%
antimutagenic effect against 2-aminoanthracene (in words) [2]: antimutagenically active
Residual mutagenic activity (%) observed for 2-AA ([2]; 50 μg compound added): 49%
Residual mutagenic activity (%) observed for 2-AA ([2]; 100 μg compound added): 44%
diameter of inhibition of fungal growth, Saprolegnia asterophora (Saprolegnia asterophora): −
diameter of inhibition of fungal growth, Rhizoctonia solani (Rhizoctonia solani): −
diameter of inhibition of fungal growth, Botryis cinerea (Botryis cinerea): −

C/C=C/c1cc(OC)c2oc(-c3ccc(O)c(OC)c3)c(C)c2c1 [Eupomatenoid-7 (7), Eupomatenoid-7]
“Death Rate” After 24 Hours (%) (brine shrimp; 10 ppm): 27%
“Death Rate” After 24 Hours (%) (brine shrimp; 100 ppm): 38%
“Death Rate” After 24 Hours (%) (brine shrimp; 500 ppm): 38%
LC50 (brine shrimp): >500 ppm
antimutagenic effect against 2-nitrofluorene (in words) [1]: strong antimutagenic effects
Residual mutagenic activity (%) observed for 2-NF ([1]; 50 μg compound added): 16%
Residual mutagenic activity (%) observed for 2-NF ([1]; 100 μg compound added): 0%
antimutagenic effect against 2-aminoanthracene (in words) [2]: strong antimutagenic effects
Residual mutagenic activity (%) observed for 2-AA ([2]; 50 μg compound added): 4%
Residual mutagenic activity (%) observed for 2-AA ([2]; 100 μg compound added): 0%
diameter of inhibition of fungal growth, Saprolegnia asterophora (Saprolegnia asterophora): −
diameter of inhibition of fungal growth, Rhizoctonia solani (Rhizoctonia solani): −
diameter of inhibition of fungal growth, Botryis cinerea (Botryis cinerea): −

C/C=C/c1cc(OC)c2c(c1)[C@H](C)[C@@H](c1ccc(O)c(OC)c1)O2 [Licarin-A (16), Licarin-A]
“Death Rate” After 24 Hours (%) (brine shrimp; 10 ppm): 93%
“Death Rate” After 24 Hours (%) (brine shrimp; 100 ppm): 93%
“Death Rate” After 24 Hours (%) (brine shrimp; 500 ppm): 96%
LC50 (brine shrimp): <10 ppm
antimutagenic effect against 2-nitrofluorene (in words) [1]: not against 2-NF
Residual mutagenic activity (%) observed for 2-NF ([1]; 50 μg compound added): 94%
Residual mutagenic activity (%) observed for 2-NF ([1]; 100 μg compound added): 85%
antimutagenic effect against 2-aminoanthracene (in words) [2]: antimutagenically active
Residual mutagenic activity (%) observed for 2-AA ([2]; 50 μg compound added): 31%
Residual mutagenic activity (%) observed for 2-AA ([2]; 100 μg compound added): 6%
diameter of inhibition of fungal growth, Saprolegnia asterophora (Saprolegnia asterophora): −
diameter of inhibition of fungal growth, Rhizoctonia solani (Rhizoctonia solani): ++ (++ = 5-10 mm diameter inhibition)
diameter of inhibition of fungal growth, Botryis cinerea (Botryis cinerea): −

COc1cc([C@@H]2c3cc4c(cc3[C@H](O)[C@H]3COC(=O)[C@H]23)OCO4)cc(OC)c1OC [Podophyllotoxin, reference compound]
“Death Rate” After 24 Hours (%) (brine shrimp; 10 ppm): 74%
“Death Rate” After 24 Hours (%) (brine shrimp; 100 ppm): 93%
“Death Rate” After 24 Hours (%) (brine shrimp; 500 ppm): 100%
LC50 (brine shrimp): <10 ppm

COc1cc(C=O)ccc1O [Vanillin (31), Vanillin]
“Death Rate” After 24 Hours (%) (brine shrimp; 10 ppm): 5%
“Death Rate” After 24 Hours (%) (brine shrimp; 100 ppm): 0%
“Death Rate” After 24 Hours (%) (brine shrimp; 500 ppm): 12%
LC50 (brine shrimp): >500 ppm
diameter of inhibition of fungal growth, Saprolegnia asterophora (Saprolegnia asterophora): −
diameter of inhibition of fungal growth, Rhizoctonia solani (Rhizoctonia solani): −
diameter of inhibition of fungal growth, Botryis cinerea (Botryis cinerea): −

(+)(2R, 3R)-Dihydrocarinatidin [Dihydrocarinatidine (21)]
“Death Rate” After 24 Hours (%) (brine shrimp; 10 ppm): 26%
“Death Rate” After 24 Hours (%) (brine shrimp; 100 ppm): 53%
“Death Rate” After 24 Hours (%) (brine shrimp; 500 ppm): 80%
LC50 (brine shrimp): ca. 120 ppm
diameter of inhibition of fungal growth, Saprolegnia asterophora (Saprolegnia asterophora): + (+ = 5 mm diameter inhibition)
diameter of inhibition of fungal growth, Rhizoctonia solani (Rhizoctonia solani): + (+ = 5 mm diameter inhibition)
diameter of inhibition of fungal growth, Botryis cinerea (Botryis cinerea): + (+ = 5 mm diameter inhibition)

Aristolactam C III [Aristolactam C (4)]
“Death Rate” After 24 Hours (%) (brine shrimp; 10 ppm): 0%
“Death Rate” After 24 Hours (%) (brine shrimp; 100 ppm): 0%
“Death Rate” After 24 Hours (%) (brine shrimp; 500 ppm): 3%
LC50 (brine shrimp): >500 ppm
diameter of inhibition of fungal growth, Saprolegnia asterophora (Saprolegnia asterophora): ++ (++ = 5-10 mm diameter inhibition)
diameter of inhibition of fungal growth, Rhizoctonia solani (Rhizoctonia solani): + (+ = 5 mm diameter inhibition)
diameter of inhibition of fungal growth, Botryis cinerea (Botryis cinerea): + (+ = 5 mm diameter inhibition)

Taliscanine [Taliscanine (5)]
activity at the GABA receptors (GABA receptors): negligible activity
symptoms of Parkinsonism and related neurological disorders (Parkinsonism): alleviates the symptoms of Parkinsonism and related neurological disorders
levels of inhibition with the remaining receptors [3]: very poor levels of inhibition
activity at the dopamine receptors (dopamine receptors): negligible activity
activity at the serotonin receptors (serotonin receptors): negligible activity
inhibition, opiate mu receptor (opiate mu receptor): 50%
